Source: patent publication US20250059220A1, “SUBSTITUTED BENZOTHIOPHENE DERIVATIVES AND METHODS OF USE THEREOF” (Merck Sharp & Dohme LLC, priority 2021, published 2025)

What was measured:
[1] = target: human PTPN2 (1-387) (Homo sapiens (Human), UniProt P17706); assay: Human PTPN2 Biochemical Assay; conditions: DiFMUP substrate
Summary of the method: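 Fluorogenic DiFMUP hydrolysis (1 h, room temperature, read ex 360/em 460 nm) after 30 min compound preincubation with PTPN2 residues 1-387, in 50 mM Tris pH 7.4, 150 mM NaCl, 0.01% Tween20, 0.5 mM DTT. Effects scaled between buffer and enzyme controls, 4-parameter fit gives EC50.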

[2] = target: human PTPN1 (1-435) (Homo sapiens (Human), UniProt P18031); assay: Human PTPN1 Biochemical Assay; conditions: DiFMUP substrate, read-out: PTP1B IC50
Chain of human PTPN1 (1-435) (P18031 whole entry): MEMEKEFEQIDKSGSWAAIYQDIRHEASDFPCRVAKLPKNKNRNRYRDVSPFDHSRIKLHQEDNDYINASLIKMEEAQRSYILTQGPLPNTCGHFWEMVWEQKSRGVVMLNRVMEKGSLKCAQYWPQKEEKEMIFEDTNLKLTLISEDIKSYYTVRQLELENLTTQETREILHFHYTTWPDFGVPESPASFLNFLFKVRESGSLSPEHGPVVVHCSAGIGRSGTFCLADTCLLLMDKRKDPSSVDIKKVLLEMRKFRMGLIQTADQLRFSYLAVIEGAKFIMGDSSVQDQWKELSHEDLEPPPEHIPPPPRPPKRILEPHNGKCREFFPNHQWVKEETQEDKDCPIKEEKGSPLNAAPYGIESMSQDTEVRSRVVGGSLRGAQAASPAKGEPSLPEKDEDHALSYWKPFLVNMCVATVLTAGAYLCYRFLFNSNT
Summary of the method: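 Read-out is DiFMUP hydrolysis fluorescence (360 nm excitation, 460 nm emission) after 1 h at room temperature, following 30 min enzyme–compound preincubation.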

Chain of human PTPN2 (1-387) (P17706 other isoform, or with tags, fused parts or gaps): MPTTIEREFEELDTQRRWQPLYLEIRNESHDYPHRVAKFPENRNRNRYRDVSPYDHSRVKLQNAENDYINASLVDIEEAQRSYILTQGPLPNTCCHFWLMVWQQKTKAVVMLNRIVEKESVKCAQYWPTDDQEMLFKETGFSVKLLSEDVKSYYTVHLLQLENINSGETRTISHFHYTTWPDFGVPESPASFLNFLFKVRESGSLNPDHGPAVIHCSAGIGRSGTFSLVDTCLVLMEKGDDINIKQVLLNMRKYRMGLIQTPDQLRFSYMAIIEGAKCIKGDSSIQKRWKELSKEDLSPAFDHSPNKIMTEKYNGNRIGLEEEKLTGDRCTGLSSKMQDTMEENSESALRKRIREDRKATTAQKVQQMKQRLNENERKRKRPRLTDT

| SMILES | IC50 [1] [nM] | IC50 [2] [nM] |
| --- | --- | --- |
| N#Cc1ccc2c(Br)c(C(F)(F)P(=O)(O)O)sc2c1 [Compound 299, ((3-bromo-6-cyanobenzo[b]thiophen-2-yl)difluoromethyl)phosphonic acid] | 17100 | 8980 |
| NC(=O)c1ccc2c(Br)c(C(F)(F)P(=O)(O)O)sc2c1 [Compound 300, ((3-bromo-6-carbamoylbenzo[b]thiophen-2-yl)difluoromethyl)phosphonic acid] | 16900 | 7330 |
| CC(C)(O)CCOc1ccc2c(Br)c(C(F)(F)P(=O)(O)O)sc2c1 [Compound 302, ((3-bromo-6-(3-hydroxy-3-methylbutoxy)benzo[b]thiophen-2-yl)difluoromethyl)phosphonic acid] | 43700 | 37900 |
| O=C(Nc1ccc2c(Br)c(C(F)(F)P(=O)(O)O)sc2c1)c1ccccc1 [Compound 303, ((6-benzamido-3-bromobenzo[b]thiophen-2-yl)difluoromethyl)phosphonic acid] | 24700 | 2690 |
| NC(=O)c1cc(C#CCCS(N)(=O)=O)c2sc(C(F)(F)P(=O)(O)O)c(Br)c2c1 [Compound 310] | 68.5 | 77.7 |
| NC(=O)c1cc(NCCCS(N)(=O)=O)c2sc(C(F)(F)P(=O)(O)O)c(Br)c2c1 [Compound 312] | 71.2 | 79.1 |
| C[Si](C)(C)CCc1cc(C(N)=O)cc2c(Br)c(C(F)(F)P(=O)(O)O)sc12 [Compound 314] | 52.6 | 47.5 |
| NC(=O)c1cc(OCCC2CCC2)c2sc(C(F)(F)P(=O)(O)O)c(Br)c2c1 [Compound 317] | 68.5 | 68.4 |
| CS(=O)(=O)CCCCOc1cc(C(N)=O)cc2c(Br)c(C(F)(F)P(=O)(O)O)sc12 [Compound 318] | 34.8 | 52.6 |
| CNC(=O)c1cc(OCCCS(C)(=O)=O)c2sc(C(F)(F)P(=O)(O)O)c(Br)c2c1 [Compound 319] | 9.67 | 9.2 |
| CNC(=O)c1cc(OCCCNS(C)(=O)=O)c2sc(C(F)(F)P(=O)(O)O)c(Br)c2c1 [Compound 323] | 55.4 | 44 |
| CNC(=O)c1cc(OCCCCS(C)(=O)=O)c2sc(C(F)(F)P(=O)(O)O)c(Br)c2c1 [Compound 324] | 29.9 | 41 |
| CNC(=O)c1cc(OCCC(C)(F)F)c2sc(C(F)(F)P(=O)(O)O)c(Br)c2c1 [Compound 325] | 385 | 183 |
| CNC(=O)c1cc(OCCCC(C)(F)F)c2sc(C(F)(F)P(=O)(O)O)c(Br)c2c1 [Compound 326] | 16.1 | 2.5 |
| N#CCCNC(=O)c1cc(OCCCC(F)(F)F)c2sc(C(F)(F)P(=O)(O)O)c(Br)c2c1 [Compound 329] | 14.1 | 18.1 |
| CS(=O)(=O)CCCOc1cc(C(=O)NCCC#N)cc2c(Br)c(C(F)(F)P(=O)(O)O)sc12 [Compound 330] | 10.4 | 9.2 |
| CS(=O)(=O)CCCOc1cc(C(N)=O)cc2c(Cl)c(C(F)(F)P(=O)(O)O)sc12 [Compound 333] | 42.1 | 37 |
| NC(=O)c1cc(OCCCC2(S(N)(=O)=O)CC2)c2sc(C(F)(F)P(=O)(O)O)c(Br)c2c1 [Compound 335] | 4.4 | 5.4 |
| NC(=O)c1cc(OCc2ccc(F)cc2C(F)(F)F)c2sc(C(F)(F)P(=O)(O)O)c(Br)c2c1 [Compound 336] | 88.6 | 160 |
| Cc1ccc(COc2cc(C(N)=O)cc3c(Br)c(C(F)(F)P(=O)(O)O)sc23)c(C)c1 [Compound 337] | 83.3 | 158 |
| NC(=O)c1cc(OCc2ccc(C(F)(F)F)cc2F)c2sc(C(F)(F)P(=O)(O)O)c(Br)c2c1 [Compound 338] | 51.2 | 74.4 |
| N#Cc1cc(Cl)ccc1COc1cc(C(N)=O)cc2c(Br)c(C(F)(F)P(=O)(O)O)sc12 [Compound 341] | 46.7 | 94.3 |

Results, then the compound that gave them:

| IC50 [1] [nM] | IC50 [2] [nM] | SMILES |
| --- | --- | --- |
| 17000 | 12900 | N#Cc1ccc2c(C#N)c(C(F)(F)P(=O)(O)O)sc2c1 [Compound 301, ((3,6-dicyanobenzo[b]thiophen-2-yl)difluoromethyl)phosphonic acid] |
| 8.9 | 9.8 | [2H]C([2H])([2H])NC(=O)c1cc(OCCCS(C)(=O)=O)c2sc(C(F)(F)P(=O)(O)O)c(Br)c2c1 [Compound 304] |
| 7.6 | 8.6 | CCNC(=O)c1cc(OCCCS(C)(=O)=O)c2sc(C(F)(F)P(=O)(O)O)c(Br)c2c1 [Compound 305] |
| 16.4 | 25.7 | CC(C)(O)CCCOc1cc(C(N)=O)cc2c(Br)c(C(F)(F)P(=O)(O)O)sc12 [Compound 306] |
| 65 | 57.5 | CC(C)=CCCOc1cc(C(N)=O)cc2c(Br)c(C(F)(F)P(=O)(O)O)sc12 [Compound 307] |
| 25.2 | 23.4 | NC(=O)c1cc(OCCCCS(N)(=O)=O)c2sc(C(F)(F)P(=O)(O)O)c(Br)c2c1 [Compound 308] |
| 120 | 140 | NC(=O)c1cc(CCCCS(N)(=O)=O)c2sc(C(F)(F)P(=O)(O)O)c(Br)c2c1 [Compound 311] |
| 132 | 146 | NC(=O)c1cc(CCc2ccccc2)c2sc(C(F)(F)P(=O)(O)O)c(Br)c2c1 [Compound 313] |
| 21.8 | 23.4 | NC(=O)c1cc(OCC2CC2(F)F)c2sc(C(F)(F)P(=O)(O)O)c(Br)c2c1 (centres unmarked) [Compound 315] |
| 50.4 | 68.1 | NC(=O)c1cc(OCC2CC2(F)F)c2sc(C(F)(F)P(=O)(O)O)c(Br)c2c1 (centres unmarked) [Compound 316] |
| 6.81 | 7.5 | CNC(=O)c1cc(OCCCS(N)(=O)=O)c2sc(C(F)(F)P(=O)(O)O)c(Br)c2c1 [Compound 320] |
| 24.1 | 25.1 | CNC(=O)c1cc(OCC2CC2(F)F)c2sc(C(F)(F)P(=O)(O)O)c(Br)c2c1 (centres unmarked) [Compound 321] |
| 29.2 | 20.9 | CNC(=O)c1cc(OCCC2CC2(F)F)c2sc(C(F)(F)P(=O)(O)O)c(Br)c2c1 (centres unmarked) [Compound 322] |
| 266 | 233 | CC(F)(F)CCOc1cc(C(N)=O)cc2c(Br)c(C(F)(F)P(=O)(O)O)sc12 [Compound 327] |
| 7.83 | 7.9 | N#CCCNC(=O)c1cc(OCCCS(N)(=O)=O)c2sc(C(F)(F)P(=O)(O)O)c(Br)c2c1 [Compound 328] |
| 23.8 | 28.8 | NC(=O)c1cc(OCCCC2(O)CC2)c2sc(C(F)(F)P(=O)(O)O)c(Br)c2c1 [Compound 331] |
| 28.1 | 29.9 | CCC(=O)CCCOc1cc(C(N)=O)cc2c(Br)c(C(F)(F)P(=O)(O)O)sc12 [Compound 332] |
| 77.7 | 65.8 | NC(=O)c1cc(OCCCNS(=O)(=O)C(F)(F)F)c2sc(C(F)(F)P(=O)(O)O)c(Br)c2c1 [Compound 334] |
| 24.4 | 45.3 | NC(=O)c1cc(OCc2ccc(OC(F)(F)F)cc2)c2sc(C(F)(F)P(=O)(O)O)c(Br)c2c1 [Compound 339] |
| 116 | 283 | NC(=O)c1cc(OCc2ccc(C(F)(F)F)cc2C(F)(F)F)c2sc(C(F)(F)P(=O)(O)O)c(Br)c2c1 [Compound 340] |
| 75.1 | 131 | NC(=O)c1cc(OCc2ccc(F)cc2OC(F)F)c2sc(C(F)(F)P(=O)(O)O)c(Br)c2c1 [Compound 342] |
